According to patent US11149018B2, “Substituted N-arylethyl-2-aminoquinoline-4-carboxamides and use thereof” (Bayer Aktiengesellschaft, priority 2017, dated 2021):

Molecular target: FP receptor (Homo sapiens (Human), UniProt P43088)
Experiment: In vitro test of inhibition of human FP receptor activity (PGF2α-induced calcium flux in FP-expressing CHEM1 cells)
Format: cell-based
Settings: PGF2α 2 nM, some mean values of multiple determinations
Procedure: B-1. In Vitro Test of Inhibition of Human FP Receptor Activity
For the characterization of test substances in respect of FP antagonism, PGF2α-induced calcium flux in FP-expressing CHEM1 cells (Millipore, HTS093C) was used.
10 μl of the prediluted substance solution are added to the Fluo-8-laden cells and incubated at 37° C., 5% CO2 for 10 minutes. The FP receptor is activated by adding 40 μl of 2 nM (final concentration) PGF2α in calcium-free Tyrode, 2 mM CaCl2, 0.002% SmartBlock, and the calcium flux is determined by measuring the fluorescence at ex. 470 nm/[…].
Table 1 below lists the IC50 values from this assay for individual working examples of the invention (some as mean values from multiple independent individual determinations): […]

Sequence of FP receptor (P43088 whole entry): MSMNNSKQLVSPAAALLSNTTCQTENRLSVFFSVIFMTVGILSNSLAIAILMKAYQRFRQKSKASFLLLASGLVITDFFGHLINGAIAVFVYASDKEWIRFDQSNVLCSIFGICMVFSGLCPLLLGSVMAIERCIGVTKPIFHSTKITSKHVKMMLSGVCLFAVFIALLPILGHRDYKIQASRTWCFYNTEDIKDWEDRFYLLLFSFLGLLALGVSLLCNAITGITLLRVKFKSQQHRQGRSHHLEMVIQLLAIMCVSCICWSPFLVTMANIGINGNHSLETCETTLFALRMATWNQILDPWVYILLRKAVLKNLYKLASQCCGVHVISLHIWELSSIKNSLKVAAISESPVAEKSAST

Row | Structure (SMILES) | IC50 [nM]
1 | Cc1c(N2CCCC(F)(F)C2)nc2ccc(Br)cc2c1C(=O)NCC(CCC(=O)O)c1ccccc1Cl (racemic) [Example 50, (+/−)-5-({[6-Bromo-2-(3,3-difluoropiperidin-1-yl)-3-methylquinolin-4-yl]carbonyl}amino)-4-(2-chlorophenyl)pentanoic acid] | 3
2 | [2H]C1([2H])N(c2nc3ccc(Br)cc3c(C(=O)NCC(CCC(=O)O)c3ccccc3OC(F)(F)F)c2C)C([2H])([2H])C([2H])([2H])C([2H])([2H])C1([2H])[2H] (single isomer, unassigned; (+)) [Example 271, (+)-5-[({6-Bromo-3-methyl-2-[(^2H10)piperidin-1-yl]quinolin-4-yl}carbonyl)amino]-4-[2-(trifluoromethoxy)phenyl]pentanoic acid] | 6.3
3 | Cc1c(N2CCCC(C)C2)nc2ccc(Br)cc2c1C(=O)NCC(CCC(=O)O)c1ccccc1OC(F)(F)F (single isomer, unassigned; (+)) [Example 212, (+)-5-[({6-Bromo-3-methyl-2-[3-methylpiperidin-1-yl]quinolin-4-yl}carbonyl)amino]-4-[2-(trifluoromethoxy)phenyl]pentanoic acid] | 1.9
4 | Cc1ccccc1C(CCC(=O)O)CNC(=O)c1c(C)c(N2CCCCCC2)nc2ccc(Br)cc12 (racemic) [Example 243, (+/−)-5-({[2-(Azepan-1-yl)-6-bromo-3-methylquinolin-4-yl]carbonyl}amino)-4-(2-methylphenyl)pentanoic acid] | 11
5 | Cc1c(N2CCCCC2)nc2ccc(Br)cc2c1C(=O)NCC(CCC(=O)O)c1c(Cl)ccc(Cl)c1Cl (racemic) [Example 171, (+/−)-5-({[6-Bromo-3-methyl-2-(piperidin-1-yl)quinolin-4-yl]carbonyl}amino)-4-(2,3,6-trichlorophenyl)pentanoic acid] | 9.4
6 | Cc1c(N2CCCC(F)(F)C2)nc2ccc(Br)cc2c1C(=O)NCC(CCC(=O)O)c1c(F)cccc1C(F)(F)F (racemic) [Example 166, (+/−)-5-({[6-Bromo-2-(3,3-difluoropiperidin-1-yl)-3-methylquinolin-4-yl]carbonyl}amino)-4-[2-fluoro-6-(trifluoromethyl)phenyl]pentanoic acid] | 9.5
7 | COc1ccccc1C(CCC(=O)O)CNC(=O)c1c(C)c(N2CCCCCC2)nc2ccc(Br)cc12 (single isomer, unassigned; (-)) [Example 240, (−)-5-({[2-(Azepan-1-yl)-6-bromo-3-methylquinolin-4-yl]carbonyl}amino)-4-(2-methoxyphenyl)pentanoic acid] | 16
8 | Cc1c(N2CCCC(C)C2)nc2ccc(Br)cc2c1C(=O)NCC(CCC(=O)O)c1cc(F)ccc1Cl (stereo not drawn) [Example 17, 5-[({6-Bromo-3-methyl-2-[3-methylpiperidin-1-yl]quinolin-4-yl}carbonyl)amino]-4-(2-chloro-5-fluorophenyl)pentanoic acid] | 4.1
9 | Cc1c(N2CCCC2)nc2ccc(Br)cc2c1C(=O)NCC(CCC(=O)O)c1c(F)cccc1F (single isomer, unassigned; (-)) [Example 249, (−)-5-({[6-Bromo-3-methyl-2-(pyrrolidin-1-yl)quinolin-4-yl]carbonyl}amino)-4-(2,6-difluorophenyl)pentanoic acid] | 9.4
10 | Cc1c(N2CCCC(F)C2)nc2ccc(Br)cc2c1C(=O)NCC(CCC(=O)O)c1c(Cl)ccc(Cl)c1Cl (single isomer, unassigned) [Example 224, 5-[({6-Bromo-2-[3-fluoropiperidin-1-yl]-3-methylquinolin-4-yl}carbonyl)amino]-4-(2,3,6-trichlorophenyl)pentanoic acid] | 38
11 | Cc1c(N2CCCC(C#N)C2)nc2ccc(Br)cc2c1C(=O)NCC(CCC(=O)O)c1ccccc1Cl (stereo not drawn) [Example 76, 5-[({6-Bromo-2-[3-cyanopiperidin-1-yl]-3-methylquinolin-4-yl}carbonyl)amino]-4-(2-chlorophenyl)pentanoic acid] | 670
12 | CCC1CCCN(c2nc3ccc(Br)cc3c(C(=O)NCC(CCC(=O)O)c3ccccc3C(F)(F)F)c2C)C1 (single isomer, unassigned; (+)) [Example 193, (+)-5-[({6-Bromo-2-[3-ethylpiperidin-1-yl]-3-methylquinolin-4-yl}carbonyl)amino]-4-[2-(trifluoromethyl)phenyl]pentanoic acid] | 0.62
13 | Cc1c(N2CCCC3(CC3)C2)nc2ccc(Br)cc2c1C(=O)NCC(CCC(=O)O)c1ccccc1Cl (racemic) [Example 110, (+/−)-5-({[2-(5-Azaspiro[2.5]oct-5-yl)-6-bromo-3-methylquinolin-4-yl]carbonyl}amino)-4-(2-chlorophenyl)pentanoic acid] | 24
14 | Cc1c(N2CCCC2)nc2ccc(Br)cc2c1C(=O)NCC(CCC(=O)O)c1c(F)cccc1C(F)(F)F (single isomer, unassigned; (-)) [Example 165, (−)-5-({[6-Bromo-3-methyl-2-(pyrrolidin-1-yl)quinolin-4-yl]carbonyl}amino)-4-[2-fluoro-6-(trifluoromethyl)phenyl]pentanoic acid] | 2.9
15 | Cc1c(N2CCCC2)nc2ccc(Br)cc2c1C(=O)NCC(CCC(=O)O)c1c(F)cccc1F (single isomer, unassigned) [Example 248, 5-({[6-Bromo-3-methyl-2-(pyrrolidin-1-yl)quinolin-4-yl]carbonyl}amino)-4-(2,6-difluorophenyl)pentanoic acid] | 120
16 | Cc1c(N2CC=CCC2)nc2ccc(Br)cc2c1C(=O)NCC(CCC(=O)O)c1ccccc1Cl (single isomer, unassigned) [Example 30, 5-({[6-Bromo-2-(3,6-dihydropyridin-1(2H)-yl)-3-methylquinolin-4-yl]carbonyl}amino)-4-(2-chlorophenyl)pentanoic acid] | 8.7
17 | Cc1c(N2CCCC(F)C2)nc2ccc(Br)cc2c1C(=O)NCC(CCC(=O)O)c1ccccc1C(F)(F)F (single isomer, unassigned) [Example 192, 5-[({6-Bromo-2-[3-fluoropiperidin-1-yl]-3-methylquinolin-4-yl}carbonyl)amino]-4-[2-(trifluoromethyl)phenyl]pentanoic acid] | 5.6
18 | Cc1c(N2CCCCC2)nc2ccc(Br)cc2c1C(=O)NCC(CCC(=O)O)c1cccc(F)c1Cl (single isomer, unassigned; (+)) [Example 143, (+)-5-({[6-Bromo-3-methyl-2-(piperidin-1-yl)quinolin-4-yl]carbonyl}amino)-4-(2-chloro-3-fluorophenyl)pentanoic acid] | 9.3
19 | Cc1c(N2CCCCC2)nc2ccc(Br)cc2c1C(=O)NCC(CCC(=O)O)c1cc(F)ccc1Cl (single isomer, unassigned; (+)) [Example 7, (+)-5-({[6-Bromo-3-methyl-2-(piperidin-1-yl)quinolin-4-yl]carbonyl}amino)-4-(2-chloro-5-fluorophenyl)pentanoic acid] | 6.6
20 | Cc1c(N2CCCCC2)nc2ccc(Br)cc2c1C(=O)NCC(CCC(=O)O)c1c(F)cccc1OC(F)F (racemic) [Example 182, (+/−)-5-({[6-Bromo-3-methyl-2-(piperidin-1-yl)quinolin-4-yl]carbonyl}amino)-4-[2-(difluoromethoxy)-6-fluorophenyl]pentanoic acid] | 2.9
21 | Cc1c(N2CCC[C@@H]2C)nc2ccc(Br)cc2c1C(=O)NCC(CCC(=O)O)c1ccccc1Cl (single isomer, unassigned; (-)) [Example 81] | 180
22 | Cc1c(N2CCCC2)nc2ccc(Br)cc2c1C(=O)NCC(CCC(=O)O)c1ccccc1OC(F)(F)F (racemic) [Example 129, (+/−)-5-({[6-Bromo-3-methyl-2-(pyrrolidin-1-yl)quinolin-4-yl]carbonyl}amino)-4-[2-(trifluoromethoxy)phenyl]pentanoic acid] | 6.1
23 | Cc1c(NCC2CC2)nc2ccc(Br)cc2c1C(=O)NCC(CCC(=O)O)c1ccccc1Cl (racemic) [Example 100, (+/−)-5-[({6-Bromo-2-[(cyclopropylmethyl)amino]-3-methylquinolin-4-yl}carbonyl)amino]-4-(2-chlorophenyl)pentanoic acid] | 340
24 | Cc1c(N2CCCC(F)(F)C2)nc2ccc(Br)cc2c1C(=O)NCC(CCC(=O)O)c1ccccc1OC(F)(F)F (single isomer, unassigned; (+)) [Example 134, (+)-5-({[6-Bromo-2-(3,3-difluoropiperidin-1-yl)-3-methylquinolin-4-yl]carbonyl}amino)-4-[2-(trifluoromethoxy)phenyl]pentanoic acid] | 4.9
25 | Cc1c(N2CCCC(F)(F)C2)nc2ccc(Br)cc2c1C(=O)NCC(CCC(=O)O)c1ccccc1C(F)(F)F (single isomer, unassigned; (-)) [Example 118, (−)-5-({[6-Bromo-2-(3,3-difluoropiperidin-1-yl)-3-methylquinolin-4-yl]carbonyl}amino)-4-[2-(trifluoromethyl)phenyl]pentanoic acid] | 8.5
26 | CCC1CCCN(c2nc3ccc(Br)cc3c(C(=O)NCC(CCC(=O)O)c3ccccc3C(F)(F)F)c2C)C1 (single isomer, unassigned; (-)) [Example 194, (−)-5-[({6-Bromo-2-[3-ethylpiperidin-1-yl]-3-methylquinolin-4-yl}carbonyl)amino]-4-[2-(trifluoromethyl)phenyl]pentanoic acid] | 11
27 | Cc1c(N2CCCC(F)(F)C2)nc2ccc(Br)cc2c1C(=O)NCC(CCC(=O)O)c1c(F)ccc(F)c1Cl (single isomer, unassigned; (-)) [Example 218, (−)-5-({[6-Bromo-2-(3,3-difluoropiperidin-1-yl)-3-methylquinolin-4-yl]carbonyl}amino)-4-(2-chloro-3,6-difluorophenyl)pentanoic acid] | 1.2
